Laboratory results: patent publication US20240041827A1, “COMPOSITIONS FOR THE TREATMENT OF FAT RELATED CONDITIONS AND DISORDERS” (priority 2020, published 2024)

Assays:
Wi-38 fibroblasts = test: Cell Titer Glo 2.0 cytotoxicity assay on Wi-38 fibroblasts; format: cell-based; conditions: cytotoxic reference control; after 24 hours of incubation
[1] = tested on: human visceral preadipocytes; test: in vitro; conditions: for Average RZL-012 and collagenase induced cell death (% vs untreated cells): RZL12 0 μM, 24 h of incubation
Protocol: Human visceral preadipocytes were seeded in 96-well white clear bottom plates at 10,000 cells per well in 100 μl pre-adipocyte medium and incubated overnight at 37° C. 5% CO2. On the following day, adipogenic differentiation was induced by addition of 100 μl/well differentiation medium and incubation continued for 5 days. Adipogenic differentiation was verified by microscopic evaluation, addition of adipored reagents and fluorescent measurement at Ex485 nm/Em572 nm. […] Staurosporine (1 μM) and 0.2% DMSO were used as controls. Plates were incubated at 37° C. 5% CO2 for 2, 6 and 24 hours. Following incubation, cytotoxicity was measured using Cell Titer Glo 2.0 (Promega).
Test Item RZL-12 (1-300 μM) was prepared on the day of the testing as 150 mM stock solutions in DMSO. The 150 mM represents a 500×stock of the highest desired tested concentration. The 150 mM stock solution was first serially diluted in DMSO to acquire 500×stock solutions for each of the RZL-012 concentrations. The 500×stock solutions were then diluted 1:25 in medium to acquire 20×intermediate stock solutions. Finally, the 20×intermediate stock solutions were further diluted 1:20 in the assay (on the plate) that included seeded cells.
The 600 μM represents a 20× stock of the highest desired tested concentration. […] Finally, the 20×intermediate stock solutions were further diluted 1:20 in the assay plate that included seeded cells.
Human visceral pre-adipocytes (HPrAD-vis): HPrAD-vis cells (Lonza cat #PT-5005) were thawed at 37° C. and transferred into 50 ml tubes containing pre-adipocytes PGM-2 growth medium (PBM-2, 10% FBS, 1-glutamine, GA-1000). Cells were centrifuged at 300 g for 10 minutes, the supernatant was removed (Leaving about 1 ml of wash medium for not disrupting the cells) and 2 ml fresh PGM-2 medium was added. After resuspension, cells were counted and seeded in T-75 and T25 flasks at a density of 9,000 cells/cm^2 ([…], 225,000 cells/T25 flask). Medium was changed every 2-3 days until reached confluence of 70%.
Cells were sub-cultured only once, as soon as they reached 70% confluence. For this purpose, the culture medium of each flask was removed and cells were washed once with 5 ml PBS. The flask was shaken to ensure that the entire surface was covered and the PBS was removed. Then, 3 ml/T75 flask or 1 ml/T25 flask of fresh dedicated Trypsin/EDTA solution (from Lonza) was added and the flasks were incubated for 3-4 minutes at RT until ˜90% cells were detached. The Trypsin/EDTA solution was then neutralized by addition of 6 ml/T75 flask or 3 ml/T25 flask of full PGM-2 growth medium. Cells were collected in 50 ml tubes and centrifuged 10 minutes at 300 g. The supernatant was removed and the cells were resuspended in 3 ml fresh medium. Cells were then counted using a haemacytometer slide after being diluted 1:2 in trypan blue (SIGMA). For sub-culturing, cells were seeded in new T75 flasks at a density of 9,000 cells/cm^2 containing 15 ml fresh growth medium. Alternatively, the cells were seeded in 96-well culture plates at a density of 10,000 cells/well for the cell treatments.
HPrAD-vis cells: HPrAD-vis passaged once were seeded in 96-well plates as described above (10000cells/well in 100 μl medium) and allowed to settle overnight at 37° C., 5% CO2. Following day, adipogenic differentiation was induced by addition of 100 μl/well differentiation medium and incubated for 5 days. Adipogenic differentiation was verified by microscopic evaluation, addition of adipored reagents and fluorescent measurement at Ex485 nm/Em572 nm. In the morning of day 6, test and reference items were prepared as described above. Cells' medium was replaced with 90 μl fresh differentiation medium. […] Staurosporine (1 μM) and 0.2% DMSO were used as controls. Plates were incubated at 37° C. 5% CO2 for 2, 6 and 24 hours. Following incubation, cell viability was determined using the CellTiter-Gg® viability reagent (Promega) with reading of plates for luminescence. […]

Molecule: CN[C@@H]1C[C@H]2O[C@@](C)([C@@H]1OC)n1c3ccccc3c3c4c(c5c6ccccc6n2c5c31)C(=O)NC4 [staurosporine, reference compound]
- maximal cell death (Wi-38 fibroblasts): 89%
- maximal cell death ([1]; 24 h, 1 µM): 89%

Molecule: Collagenase
- Average RZL-012 and collagenase induced cell death (% vs untreated cells) ([1]; Collagenase 0.1 μM): 7.28%
- Average RZL-012 and collagenase induced cell death (% vs untreated cells) ([1]; Collagenase 0.3 μM): 6.53%
- Average RZL-012 and collagenase induced cell death (% vs untreated cells) ([1]; Collagenase 1 μM): 25.57%
- Average RZL-012 and collagenase induced cell death (% vs untreated cells) ([1]; Collagenase 3 μM): 33.27%
- Average RZL-012 and collagenase induced cell death (% vs untreated cells) ([1]; Collagenase 10 μM): 65.68%
- Average RZL-012 and collagenase induced cell death (% vs untreated cells) ([1]; Collagenase 30 μM): 79.93%
- concentrations at which the cytotoxic effect was observed ([1]; at all time points (2, 6, 24 h)): > 3000 nM
- effect of collagenase on RZL-012 cytotoxicity ([1]; collagenase 10 μM and 30 μM, 2 h time point): attenuated RZL-012 cytotoxicity
- effect of collagenase added together with RZL-012 on cell cytotoxicity ([1]; collagenase 0.1-1 μM, adipocytes, 6 h and 24 h time points, vs each compound alone): attenuate cell cytotoxicity
